Assay results published in US10344060B2 (priority 2013, dated 2019).

What was measured:
Assay in all cases: cell-based
hNav1.7 = hNav1.7 (Homo sapiens, UniProt Q15858); type: cell-based; settings: PatchXpress, tonic block, human Nav1.7; read-out: PX hNav1.7 Tonic IC50
mNav1.7 = mNav1.7 (Mus musculus, UniProt Q62205); settings: for IC50: PatchXpress, tonic block, mouse Nav1.7, read-out: PX mNav1.7 Tonic IC50; for mNav1.7/hNav1.7: ratio of PX tonic IC50, mouse Nav1.7 over human Nav1.7
mouse Nav1.4 = mouse Nav1.4 (Mus musculus, UniProt Q9ER60); settings: for IC50: PatchXpress, tonic block, mouse Nav1.4, read-out: PX mNav1.4 Tonic IC50; for mNav1.4/mNav1.7: ratio of PX tonic IC50, mouse Nav1.4 over mouse Nav1.7
rNav1.7 = rNav1.7 (Rattus norvegicus, UniProt O08562); settings: for IC50: PatchXpress, tonic block, rat Nav1.7, read-out: PX rNav1.7 Tonic IC50; for rNav1.7/hNav1.7: ratio of PX tonic IC50, rat Nav1.7 over human Nav1.7
rNav1.7, sequence (O08562 whole entry): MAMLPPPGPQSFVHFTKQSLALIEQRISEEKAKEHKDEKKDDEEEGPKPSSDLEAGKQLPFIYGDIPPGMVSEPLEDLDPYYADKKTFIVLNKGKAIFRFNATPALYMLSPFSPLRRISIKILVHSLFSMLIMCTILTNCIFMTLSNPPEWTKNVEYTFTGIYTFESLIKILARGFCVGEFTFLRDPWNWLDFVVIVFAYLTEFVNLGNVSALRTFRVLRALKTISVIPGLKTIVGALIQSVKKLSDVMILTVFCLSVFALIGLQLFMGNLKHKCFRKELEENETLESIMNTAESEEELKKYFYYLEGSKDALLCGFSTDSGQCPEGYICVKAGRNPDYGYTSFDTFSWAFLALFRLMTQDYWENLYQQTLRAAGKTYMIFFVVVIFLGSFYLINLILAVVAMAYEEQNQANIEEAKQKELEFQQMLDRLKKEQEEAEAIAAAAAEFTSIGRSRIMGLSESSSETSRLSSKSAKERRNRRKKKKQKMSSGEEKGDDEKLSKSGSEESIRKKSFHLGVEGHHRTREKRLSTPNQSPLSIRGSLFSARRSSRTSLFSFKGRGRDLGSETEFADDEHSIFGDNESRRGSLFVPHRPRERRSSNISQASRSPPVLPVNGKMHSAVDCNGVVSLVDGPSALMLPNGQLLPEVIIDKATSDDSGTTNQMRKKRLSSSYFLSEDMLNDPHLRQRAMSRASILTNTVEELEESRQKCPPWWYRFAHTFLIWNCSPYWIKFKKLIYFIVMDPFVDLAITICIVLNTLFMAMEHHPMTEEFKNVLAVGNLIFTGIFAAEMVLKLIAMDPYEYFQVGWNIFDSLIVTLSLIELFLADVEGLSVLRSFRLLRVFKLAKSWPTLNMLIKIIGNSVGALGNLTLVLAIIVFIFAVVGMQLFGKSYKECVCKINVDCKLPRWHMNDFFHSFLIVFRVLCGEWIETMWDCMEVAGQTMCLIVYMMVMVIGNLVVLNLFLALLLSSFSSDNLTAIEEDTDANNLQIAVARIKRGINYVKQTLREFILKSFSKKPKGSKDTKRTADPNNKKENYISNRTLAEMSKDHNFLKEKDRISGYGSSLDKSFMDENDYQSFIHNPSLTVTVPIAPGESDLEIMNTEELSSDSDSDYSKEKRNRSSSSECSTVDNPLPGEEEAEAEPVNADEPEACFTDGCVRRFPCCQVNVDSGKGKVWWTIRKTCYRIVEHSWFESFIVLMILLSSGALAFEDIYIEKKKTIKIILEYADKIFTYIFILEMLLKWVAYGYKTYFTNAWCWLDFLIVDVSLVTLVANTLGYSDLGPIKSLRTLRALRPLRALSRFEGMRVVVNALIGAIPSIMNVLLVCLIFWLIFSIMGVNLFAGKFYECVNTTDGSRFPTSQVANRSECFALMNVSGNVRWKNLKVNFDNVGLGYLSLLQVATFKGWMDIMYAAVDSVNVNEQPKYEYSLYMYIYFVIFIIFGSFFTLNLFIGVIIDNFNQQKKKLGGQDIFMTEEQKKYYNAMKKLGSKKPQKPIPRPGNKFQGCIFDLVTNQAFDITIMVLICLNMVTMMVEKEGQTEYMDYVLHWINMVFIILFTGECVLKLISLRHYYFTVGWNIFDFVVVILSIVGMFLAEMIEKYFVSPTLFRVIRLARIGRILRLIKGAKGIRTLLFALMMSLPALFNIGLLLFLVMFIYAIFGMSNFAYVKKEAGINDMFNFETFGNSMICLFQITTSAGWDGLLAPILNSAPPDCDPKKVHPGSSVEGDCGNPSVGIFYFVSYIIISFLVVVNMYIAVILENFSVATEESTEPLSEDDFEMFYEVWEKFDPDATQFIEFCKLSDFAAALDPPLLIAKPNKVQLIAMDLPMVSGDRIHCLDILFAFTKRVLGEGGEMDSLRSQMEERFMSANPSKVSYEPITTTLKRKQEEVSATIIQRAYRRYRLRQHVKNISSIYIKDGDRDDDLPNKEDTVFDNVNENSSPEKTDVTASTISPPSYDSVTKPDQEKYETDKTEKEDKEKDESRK

mNav1.7, sequence (Q62205 whole entry): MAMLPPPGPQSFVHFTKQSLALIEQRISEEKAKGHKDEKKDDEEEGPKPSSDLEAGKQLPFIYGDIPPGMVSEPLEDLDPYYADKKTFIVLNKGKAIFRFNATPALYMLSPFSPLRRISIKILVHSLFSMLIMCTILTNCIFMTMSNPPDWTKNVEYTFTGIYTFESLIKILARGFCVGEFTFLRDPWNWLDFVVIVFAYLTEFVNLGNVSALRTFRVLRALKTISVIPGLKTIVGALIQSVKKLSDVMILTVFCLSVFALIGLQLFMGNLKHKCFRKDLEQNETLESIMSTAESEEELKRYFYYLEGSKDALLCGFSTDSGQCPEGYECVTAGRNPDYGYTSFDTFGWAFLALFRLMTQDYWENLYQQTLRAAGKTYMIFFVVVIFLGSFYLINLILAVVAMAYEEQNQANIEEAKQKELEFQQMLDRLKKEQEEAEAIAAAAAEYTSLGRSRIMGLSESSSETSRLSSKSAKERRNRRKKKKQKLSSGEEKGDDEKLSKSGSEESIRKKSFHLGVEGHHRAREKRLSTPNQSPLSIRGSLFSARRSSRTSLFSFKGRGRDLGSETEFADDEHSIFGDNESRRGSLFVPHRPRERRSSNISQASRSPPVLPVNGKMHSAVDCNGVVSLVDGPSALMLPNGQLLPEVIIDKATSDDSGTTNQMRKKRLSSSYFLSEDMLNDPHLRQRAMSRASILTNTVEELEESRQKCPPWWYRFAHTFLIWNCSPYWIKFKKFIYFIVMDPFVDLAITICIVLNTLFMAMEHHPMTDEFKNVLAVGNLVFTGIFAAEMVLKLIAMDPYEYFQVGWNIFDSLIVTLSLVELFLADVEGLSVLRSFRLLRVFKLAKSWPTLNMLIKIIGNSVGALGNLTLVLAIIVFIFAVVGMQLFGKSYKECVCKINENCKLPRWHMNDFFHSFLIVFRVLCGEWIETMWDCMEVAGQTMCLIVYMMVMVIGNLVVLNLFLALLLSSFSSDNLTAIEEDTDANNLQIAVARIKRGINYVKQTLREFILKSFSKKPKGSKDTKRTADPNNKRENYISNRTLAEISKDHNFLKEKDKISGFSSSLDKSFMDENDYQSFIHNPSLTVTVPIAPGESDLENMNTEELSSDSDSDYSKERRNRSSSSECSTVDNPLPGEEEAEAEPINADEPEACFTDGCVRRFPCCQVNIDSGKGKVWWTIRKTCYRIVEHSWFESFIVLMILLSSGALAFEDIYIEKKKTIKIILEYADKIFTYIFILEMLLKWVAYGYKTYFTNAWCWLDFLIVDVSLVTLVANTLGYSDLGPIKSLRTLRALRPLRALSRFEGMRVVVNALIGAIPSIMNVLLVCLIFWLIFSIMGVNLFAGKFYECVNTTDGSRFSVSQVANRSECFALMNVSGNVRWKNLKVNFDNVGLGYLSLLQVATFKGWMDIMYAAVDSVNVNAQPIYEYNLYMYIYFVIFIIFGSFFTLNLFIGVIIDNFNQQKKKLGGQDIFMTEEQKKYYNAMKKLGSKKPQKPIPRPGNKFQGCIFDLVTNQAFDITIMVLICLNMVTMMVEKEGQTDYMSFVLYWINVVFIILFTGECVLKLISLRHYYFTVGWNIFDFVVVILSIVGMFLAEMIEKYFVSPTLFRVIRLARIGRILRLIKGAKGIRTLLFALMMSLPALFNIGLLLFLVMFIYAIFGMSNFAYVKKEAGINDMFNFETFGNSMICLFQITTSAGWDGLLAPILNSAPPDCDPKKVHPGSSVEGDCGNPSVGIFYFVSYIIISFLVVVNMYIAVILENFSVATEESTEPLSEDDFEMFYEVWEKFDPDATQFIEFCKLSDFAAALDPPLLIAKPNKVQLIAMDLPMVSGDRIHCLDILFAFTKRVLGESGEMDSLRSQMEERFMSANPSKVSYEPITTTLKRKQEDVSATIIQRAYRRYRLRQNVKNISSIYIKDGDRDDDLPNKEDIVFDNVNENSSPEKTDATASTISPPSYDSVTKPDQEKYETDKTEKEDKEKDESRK

Q: What does the source list for CCCC[C@@H]1NC(=O)[C@H](Cc2c[nH]c3ccccc23)NC(=O)[C@H](CCCCN)NC(=O)[C@H](CCC(N)=O)NC(=O)[C@@H](NC(=O)[C@H](Cc2ccc(O)cc2)NC(=O)[C@@H](N)CC(C)C)CSSC[C@@H]2NC(=O)[C@@H]3CSSC[C@@H](C(=O)N[C@@H](CCCNC(=N)N)C(=O)N[C@@H](CCCCN)C(=O)N[C@H](C(=O)N[C@H](C(N)=O)[C@@H](C)CC)[C@@H](C)CC)NC(=O)[C@H](Cc4c[nH]c5ccccc45)NC(=O)[C@H](CC(C)C)NC(=O)[C@H](CCCCN)NC(=O)[C@H](CSSC[C@H](NC(=O)[C@H]([C@@H](C)O)NC(=O)[C@H](Cc4c[nH]c5ccccc45)NC1=O)C(=O)N[C@@H](CC(=O)O)C(=O)N[C@@H](CO)C(=O)N[C@@H](CCCCN)C(=O)N[C@@H](CCCNC(=N)N)C(=O)N[C@@H](C)C(=O)N3)NC(=O)[C@H](CCCNC(=N)N)NC(=O)[C@H](CC(C)C)NC(=O)CNC(=O)[C@H](CCC(=O)O)NC2=O [Leu-[Nle6]JzTx-V(1-29)]?
A: IC50 (hNav1.7): 0.13 nM; IC50 (mNav1.7): 1.33 nM; mNav1.7/hNav1.7 (mNav1.7): 10.22; IC50 (mouse Nav1.4): 1.8 nM; mNav1.4/mNav1.7 (mouse Nav1.4): 1.4

Q: Which IC50 (rNav1.7) does the source give for C#CC[C@H](N)C(=O)N[C@@H](Cc1ccc(O)cc1)C(=O)N[C@H]1CSSC[C@@H]2NC(=O)[C@@H]3CSSC[C@@H](C(=O)N[C@@H](CCCNC(=N)N)C(=O)N[C@@H](CCCCN)C(=O)N[C@@H](CCC(=O)O)C(=O)N[C@H](C(N)=O)[C@@H](C)CC)NC(=O)[C@H](Cc4c[nH]c5ccccc45)NC(=O)[C@H](CC(C)C)NC(=O)[C@H](CCCCN)NC(=O)[C@H](CSSC[C@H](NC(=O)[C@H]([C@@H](C)O)NC(=O)[C@H](Cc4c[nH]c5ccccc45)NC(=O)[C@H](CCCC)NC(=O)[C@H](Cc4c[nH]c5ccccc45)NC(=O)[C@H](CCCCN)NC(=O)[C@H](CCC(N)=O)NC1=O)C(=O)N[C@@H](CC(=O)O)C(=O)N[C@@H](CO)C(=O)N[C@@H](CCC(=O)O)C(=O)N[C@@H](CCCNC(=N)N)C(=O)N[C@@H](C)C(=O)N3)NC(=O)[C@H](CCCNC(=N)N)NC(=O)[C@H](CC(C)C)NC(=O)CNC(=O)[C@H](CCC(=O)O)NC2=O [Pra-[Nle6; Glu12, 28]JzTx-V(1-29)] here?
A: The IC50 was 2.66 nM.

Q: What about the rNav1.7/hNav1.7 (rNav1.7) of the same molecule?
A: The rNav1.7/hNav1.7 was 1.54.

Q: What about the IC50 (mNav1.7) of the same molecule?
A: Its IC50 is 16.2 nM.

Q: And the mNav1.7/hNav1.7 (mNav1.7)?
A: The mNav1.7/hNav1.7 was 9.37.

Q: What about the IC50 (mouse Nav1.4) of the same molecule?
A: Its IC50 is 548 nM.

Q: And the mNav1.4/mNav1.7 (mouse Nav1.4)?
A: Its mNav1.4/mNav1.7 is 34.

Q: Which results are given for C#CC[C@H](N)C(=O)N[C@@H](Cc1ccc(O)cc1)C(=O)N[C@H]1CSSC[C@@H]2NC(=O)[C@@H]3CSSC[C@@H](C(=O)N[C@@H](CCCNC(=N)N)C(=O)N[C@@H](CCCCN)C(=O)N[C@H](C(=O)N[C@H](C(N)=O)[C@@H](C)CC)[C@@H](C)CC)NC(=O)[C@H](Cc4c[nH]c5ccccc45)NC(=O)[C@H](CC(C)C)NC(=O)[C@H](CCCCN)NC(=O)[C@H](CSSC[C@H](NC(=O)[C@H]([C@@H](C)O)NC(=O)[C@H](Cc4c[nH]c5ccccc45)NC(=O)[C@H](CCCC)NC(=O)[C@H](Cc4c[nH]c5ccccc45)NC(=O)[C@H](CCCCN)NC(=O)[C@H](CCC(N)=O)NC1=O)C(=O)N[C@@H](CC(=O)O)C(=O)N[C@@H](CO)C(=O)N[C@@H](CCC(=O)O)C(=O)N[C@@H](CCCNC(=N)N)C(=O)N[C@@H](C)C(=O)N3)NC(=O)[C@H](CCCNC(=N)N)NC(=O)[C@H](CC(C)C)NC(=O)CNC(=O)[C@H](CCC(=O)O)NC2=O [Pra-[Nle6; Glu12]JzTx-V(1-29)]?
A: IC50 (rNav1.7): 0.58 nM; rNav1.7/hNav1.7 (rNav1.7): 0.49; IC50 (mNav1.7): 0.61 nM; mNav1.7/hNav1.7 (mNav1.7): 0.51; IC50 (mouse Nav1.4): 6.36 nM; mNav1.4/mNav1.7 (mouse Nav1.4): 10

Q: What does the source list for C#CC[C@H](N)C(=O)N[C@@H](Cc1ccc(O)cc1)C(=O)N[C@H]1CSSC[C@@H]2NC(=O)[C@@H]3CSSC[C@@H](C(=O)N[C@@H](CCCNC(=N)N)C(=O)N[C@@H](CCCCN)C(=O)N[C@H](C(=O)N[C@H](C(N)=O)[C@@H](C)CC)[C@@H](C)CC)NC(=O)[C@H](Cc4c[nH]c5ccccc45)NC(=O)[C@H](CC(C)C)NC(=O)[C@H](CCCCN)NC(=O)[C@H](CSSC[C@H](NC(=O)[C@H]([C@@H](C)O)NC(=O)[C@H](Cc4c[nH]c5ccccc45)NC(=O)[C@H](CCCC)NC(=O)[C@H](Cc4c[nH]c5ccccc45)NC(=O)[C@H](CCCCN)NC(=O)[C@H](CCC(N)=O)NC1=O)C(=O)N[C@@H](CC(=O)O)C(=O)N[C@@H](CO)C(=O)N[C@@H](CCCCN)C(=O)N[C@@H](CCCNC(=N)N)C(=O)N[C@@H](C)C(=O)N3)NC(=O)[C@H](CCCNC(=N)N)NC(=O)[C@H](CC(C)C)NC(=O)CNC(=O)[C@H](CCC(=O)O)NC2=O [SEQ ID NO: 425, Pra-[Nle6]JzTx-V(1-29)]?
A: IC50 (rNav1.7): 0.522 nM; rNav1.7/hNav1.7 (rNav1.7): 0.44; IC50 (mNav1.7): 0.511 nM; mNav1.7/hNav1.7 (mNav1.7): 0.43; IC50 (mouse Nav1.4): 0.18 nM; mNav1.4/mNav1.7 (mouse Nav1.4): 0.35

Q: Which IC50 (rNav1.7) does the source give for C#CC[C@H](N)C(=O)NCCCC[C@@H]1NC(=O)[C@H](CCCNC(=N)N)NC(=O)[C@H](CCCCN)NC(=O)[C@H](CO)NC(=O)[C@H](CC(=O)O)NC(=O)[C@@H]2CSSC[C@@H]3NC(=O)[C@H](CCCNC(=N)N)NC(=O)[C@H](CC(C)C)NC(=O)CNC(=O)[C@H](CCC(=O)O)NC(=O)[C@H](CSSC[C@H](NC(=O)[C@H](Cc4ccc(O)cc4)NC(=O)[C@@H](N)CC#N)C(=O)N[C@@H](CCC(N)=O)C(=O)N[C@@H](CCCCN)C(=O)N[C@@H](Cc4c[nH]c5ccccc45)C(=O)N[C@@H](CCCC)C(=O)N[C@@H](Cc4c[nH]c5ccccc45)C(=O)N[C@@H]([C@@H](C)O)C(=O)N2)NC(=O)[C@H](CSSC[C@@H](C(=O)N[C@@H](CCCNC(=N)N)C(=O)N[C@@H](CCCCN)C(=O)N[C@@H](CCC(=O)O)C(=O)N[C@H](C(N)=O)[C@@H](C)CC)NC(=O)[C@H](Cc2c[nH]c4ccccc24)NC(=O)[C@H](CC(C)C)NC(=O)[C@H](CCCCN)NC3=O)NC1=O here?
A: Its IC50 is 2.73 nM.

Q: And the rNav1.7/hNav1.7 (rNav1.7)?
A: The rNav1.7/hNav1.7 was 1.71.

Q: And the IC50 (mNav1.7)?
A: The IC50 was 9.79 nM.

Q: And the mNav1.7/hNav1.7 (mNav1.7)?
A: Its mNav1.7/hNav1.7 is 6.15.

Q: And the IC50 (mouse Nav1.4)?
A: The IC50 was 62.7 nM.

Q: And the mNav1.4/mNav1.7 (mouse Nav1.4)?
A: The mNav1.4/mNav1.7 was 6.4.

Q: What does the source list for C#CC[C@@H]1NC(=O)[C@@H]2CSSC[C@H](NC(=O)[C@H](Cc3ccc(O)cc3)NC(=O)[C@@H](N)CC#N)C(=O)N[C@@H](CCC(N)=O)C(=O)N[C@@H](CCCCN)C(=O)N[C@@H](Cc3c[nH]c4ccccc34)C(=O)N[C@@H](CCCC)C(=O)N[C@@H](Cc3c[nH]c4ccccc34)C(=O)N[C@@H]([C@@H](C)O)C(=O)N[C@H]3CSSC[C@H](NC(=O)[C@H](CCCNC(=N)N)NC(=O)[C@H](CC(C)C)NC(=O)CNC1=O)C(=O)N[C@@H](CCCCN)C(=O)N[C@@H](CC(C)C)C(=O)N[C@@H](Cc1c[nH]c4ccccc14)C(=O)N[C@H](C(=O)N[C@@H](CCCNC(=N)N)C(=O)N[C@@H](CCCCN)C(=O)N[C@@H](CCC(=O)O)C(=O)N[C@H](C(N)=O)[C@@H](C)CC)CSSC[C@H](NC(=O)[C@H](C)NC(=O)[C@H](CCCNC(=N)N)NC(=O)[C@H](CCCCN)NC(=O)[C@H](CO)NC(=O)[C@H](CC(=O)O)NC3=O)C(=O)N2 [CyA-[Nle6, Pra17, Glu28]JzTx-V(1-29)]?
A: IC50 (rNav1.7): 1.41 nM; IC50 (mNav1.7): 4.8 nM; IC50 (mouse Nav1.4): 32.2 nM

Q: For C#CC[C@H](N)C(=O)N[C@@H](CCC(=O)O)C(=O)N[C@H]1CSSC[C@@H]2NC(=O)[C@@H]3CSSC[C@@H](C(=O)N[C@@H](CCCNC(=N)N)C(=O)N[C@@H](CCCCN)C(=O)N[C@@H](CCC(=O)O)C(=O)N[C@H](C(N)=O)[C@@H](C)CC)NC(=O)[C@H](Cc4c[nH]c5ccccc45)NC(=O)[C@H](CC(C)C)NC(=O)[C@H](CCCCN)NC(=O)[C@H](CSSC[C@H](NC(=O)[C@H]([C@@H](C)O)NC(=O)[C@H](Cc4c[nH]c5ccccc45)NC(=O)[C@H](CCCC)NC(=O)[C@H](Cc4c[nH]c5ccccc45)NC(=O)[C@H](CCCCN)NC(=O)[C@H](CCC(N)=O)NC1=O)C(=O)N[C@@H](CC(=O)O)C(=O)N[C@@H](CO)C(=O)N[C@@H](CCCCN)C(=O)N[C@@H](CCCNC(=N)N)C(=O)N[C@@H](C)C(=O)N3)NC(=O)[C@H](CCCNC(=N)N)NC(=O)[C@H](CC(C)C)NC(=O)CNC(=O)[C@H](CCC(=O)O)NC2=O [Pra-[Glu1, 28; Nle6]JzTx-V(1-29)], which IC50 (rNav1.7) is on record?
A: Its IC50 is 1.38 nM.

Q: And the rNav1.7/hNav1.7 (rNav1.7)?
A: The rNav1.7/hNav1.7 was 1.22.

Q: What about the IC50 (mNav1.7) of the same molecule?
A: Its IC50 is 9.48 nM.

Q: What about the mNav1.7/hNav1.7 (mNav1.7) of the same molecule?
A: Its mNav1.7/hNav1.7 is 8.41.

Q: What about the IC50 (mouse Nav1.4) of the same molecule?
A: The IC50 was 259 nM.

Q: What about the mNav1.4/mNav1.7 (mouse Nav1.4) of the same molecule?
A: The mNav1.4/mNav1.7 was 27.

Q: C#CC[C@H](N)C(=O)N[C@@H](Cc1ccc(O)cc1)C(=O)N[C@H]1CSSC[C@@H]2NC(=O)[C@@H]3CSSC[C@@H](C(=O)N[C@@H](CCCNC(=N)N)C(=O)N[C@@H](CCCCN)C(=O)N[C@H](C(=O)N[C@@H](Cc4c[nH]c5ccccc45)C(N)=O)[C@@H](C)CC)NC(=O)[C@H](Cc4c[nH]c5ccccc45)NC(=O)[C@H](CC(C)C)NC(=O)[C@H](CCCCN)NC(=O)[C@H](CSSC[C@H](NC(=O)[C@H]([C@@H](C)O)NC(=O)[C@H](Cc4c[nH]c5ccccc45)NC(=O)[C@H](CCCC)NC(=O)[C@H](Cc4c[nH]c5ccccc45)NC(=O)[C@H](CCCCN)NC(=O)[C@H](CCC(N)=O)NC1=O)C(=O)N[C@@H](CC(=O)O)C(=O)N[C@@H](CO)C(=O)N[C@@H](CCCCN)C(=O)N[C@@H](CCCNC(=N)N)C(=O)N[C@@H](C)C(=O)N3)NC(=O)[C@H](CCCNC(=N)N)NC(=O)[C@H](CC(C)C)NC(=O)CNC(=O)[C@H](CCC(=O)O)NC2=O [Pra-[Nle6; Trp29]JzTx-V(1-29)] was tested. Which IC50 (mNav1.7) did it give?
A: Its IC50 is 10.7 nM.

Q: And the mNav1.7/hNav1.7 (mNav1.7)?
A: The mNav1.7/hNav1.7 was 2.23.

Q: What about the IC50 (mouse Nav1.4) of the same molecule?
A: The IC50 was 9.67 nM.

Q: What about the mNav1.4/mNav1.7 (mouse Nav1.4) of the same molecule?
A: The mNav1.4/mNav1.7 was 0.91.
